Values quoted from earlier work as cited in US20150082465A1, “System and Method for Whole-Animal High-Throughput Compound Screening” (System959, LLC, priority 2013, published 2015).

System: C. elegans
Conditions: by antagonizing egl-19, an L-type calcium channel

Q: Which “growth of C. elegans” value does the source give for CCOC(=O)C1=C(C)NC(C)=C(C(=O)OCC)C1c1c(F)c(F)c(F)c(F)c1F [Nemadipine] here?
A: inhibit the growth
